{
  "source": "patent US6197761A",
  "about": "“17β-2-oxo-tetrahydrofuranyl)-carbothioic acid ester, -carboxylic acid ester and -carboxylic acid amide androstane derivatives” (Glaxo Wellcome Inc., priority 1995, dated 2001)",
  "key": {"[1]": {"tested_on": "Adrenocorticotrophic hormone (ACTH)", "assay": "Systemic effects: ACTH suppression in adrenalectomised rats", "format": "in vivo, rat", "conditions": "single intra-tracheal, adrenalectomised male CD rats, plasma ACTH at 4 h", "protocol": "(ii) Systemic effects--ACTH suppression in adrenalectomised rats\nMale CD rats (90-120 g) were adrenalectomised under Isoflurane anaesthesia and drinking water was supplemented with 0.9% saline. Four days later the animals receive a single intra-tracheal dose (under Isoflurane anaesthesia) of compound suspended in saline (containing 0.2% Tween-80, 0.2 ml) at 10 am. After 4 h animals are sacrificed by administration of Euthetal and blood samples are taken by intra-cardiac puncture and collected into heparinised tubes. The samples are centrifuged (20 minutes at 1000 RPM at 4 deg C.), the plasma is collected and assayed by Radioimmunoassay (RIA) for Adrenocorticotrophic hormone (ACTH) using a DPC double antibody RIA kit. Intact and vehicle control groups were included in each experiment in order to account for diurnal variation in ACTH and effects of vehicle. Results are calculated with respect to the RIA standard curve and expressed as ACTH pg/ml plasma, allowing percentage reduction in ACTH to be calculated."}, "rat ear oedema": {"tested_on": "rat ear oedema", "assay": "Anti-inflammatory activity: inhibition of rat ear oedema (croton oil)", "format": "in vivo", "conditions": "dose 100 μg, topical to ear with 5% croton oil in acetone, male rats, 6 hours", "protocol": "(i) Anti-inflammatory Activity--Inhibition of rat ear oedema\nThe test compounds are dissolved in acetone and 40 ul containing 5% croton oil is applied to the inner surface of each of the ears of 60-80 g male rats. Animals are killed 6 hours later and the ears are removed. Standard size (0.5 cm diameter) discs are punched out and the discs weighed. Mean weight of the ear discs is calculated and from this percentage inhibition of ear inflammation in relation to croton oil alone treated ears are calculated."}},
  "data": [
    {"smiles": "CCC(=O)O[C@]1(C(=O)S[C@H]2CCOC2=O)[C@H](C)C[C@H]2[C@@H]3C[C@H](F)C4=CC(=O)C=C[C@]4(C)[C@@]3(F)[C@@H](O)C[C@@]21C", "note": "[Example 2, 6α,9α-Difluoro-11β-hydroxy-16α-methyl-3-oxo-17α-propionyloxy-androsta-1,4-diene-17β-carbothioic acid S-(2-oxo-tetrahydro-furan-3S-yl)-ester]", "values": [
      {"measurement": "% Reduction in ACTH", "setting": "[1]; dose 500 μg", "result": 0, "unit": "%"},
      {"measurement": "% Inhibition (ear inflammation)", "setting": "rat ear oedema", "result": 42, "unit": "%"}
    ]},
    {"smiles": "CC1(C)O[C@@H]2C[C@H]3[C@@H]4C[C@H](F)C5=CC(=O)C=C[C@]5(C)[C@@]4(F)[C@@H](O)C[C@]3(C)[C@]2(C(=O)CO)O1", "note": "[Fluocinolone acetonide]", "values": [
      {"measurement": "% Reduction in ACTH", "setting": "[1]; dose 1 μg", "result": 49, "unit": "%"},
      {"measurement": "% Reduction in ACTH", "setting": "[1]; dose 5 μg", "result": 84, "unit": "%"}
    ]}
  ]
}
